Each block holds one compound with its values, some of them ahead of it.
Key:
[1] = molecular target: Sodium channel protein type 5 subunit alpha (Homo sapiens, UniProt Q14524); type: functional, cell-based
[2] = molecular target: Hydroxycarboxylic acid receptor 2 (Homo sapiens, UniProt Q8TDS4)
[3] = molecular target: T1, Androgen receptor (Rattus norvegicus, UniProt P15207); type: functional
T1 sequence (P15207 whole entry): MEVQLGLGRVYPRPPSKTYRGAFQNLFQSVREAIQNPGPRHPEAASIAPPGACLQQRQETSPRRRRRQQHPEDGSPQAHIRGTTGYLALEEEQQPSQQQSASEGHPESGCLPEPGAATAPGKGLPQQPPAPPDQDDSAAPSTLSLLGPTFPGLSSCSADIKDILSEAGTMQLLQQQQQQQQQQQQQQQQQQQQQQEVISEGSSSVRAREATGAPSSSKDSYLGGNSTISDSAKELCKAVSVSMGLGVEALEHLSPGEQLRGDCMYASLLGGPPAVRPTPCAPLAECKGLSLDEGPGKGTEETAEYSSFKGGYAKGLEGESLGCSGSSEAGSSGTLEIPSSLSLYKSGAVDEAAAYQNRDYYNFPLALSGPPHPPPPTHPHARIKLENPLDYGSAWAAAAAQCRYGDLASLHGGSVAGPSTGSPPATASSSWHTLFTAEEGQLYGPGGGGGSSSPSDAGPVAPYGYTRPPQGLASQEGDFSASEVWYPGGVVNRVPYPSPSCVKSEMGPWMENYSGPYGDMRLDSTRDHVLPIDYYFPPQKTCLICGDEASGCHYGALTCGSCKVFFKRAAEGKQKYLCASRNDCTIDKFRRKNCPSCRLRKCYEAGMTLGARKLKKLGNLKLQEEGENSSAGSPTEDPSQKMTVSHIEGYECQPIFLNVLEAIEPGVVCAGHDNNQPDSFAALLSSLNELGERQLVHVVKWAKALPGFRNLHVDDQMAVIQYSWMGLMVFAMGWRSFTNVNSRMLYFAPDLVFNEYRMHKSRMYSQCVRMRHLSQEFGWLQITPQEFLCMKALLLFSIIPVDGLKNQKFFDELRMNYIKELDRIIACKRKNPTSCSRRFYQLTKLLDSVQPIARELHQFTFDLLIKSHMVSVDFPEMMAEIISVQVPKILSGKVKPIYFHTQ

[4] = molecular target: 5-hydroxytryptamine receptor 6 (Homo sapiens, UniProt P50406)
[5] = molecular target: 5-hydroxytryptamine receptor 7 (Homo sapiens, UniProt P34969)
[6] = molecular target: Gamma-aminobutyric acid type B receptor subunit 1 (Homo sapiens, UniProt Q9UBS5)
[7] = molecular target: Cannabinoid receptor 1 (Homo sapiens, UniProt P21554); type: functional
[8] = molecular target: T2, Muscarinic acetylcholine receptor M5 (Homo sapiens, UniProt P08912)
T2 sequence (P08912 whole entry): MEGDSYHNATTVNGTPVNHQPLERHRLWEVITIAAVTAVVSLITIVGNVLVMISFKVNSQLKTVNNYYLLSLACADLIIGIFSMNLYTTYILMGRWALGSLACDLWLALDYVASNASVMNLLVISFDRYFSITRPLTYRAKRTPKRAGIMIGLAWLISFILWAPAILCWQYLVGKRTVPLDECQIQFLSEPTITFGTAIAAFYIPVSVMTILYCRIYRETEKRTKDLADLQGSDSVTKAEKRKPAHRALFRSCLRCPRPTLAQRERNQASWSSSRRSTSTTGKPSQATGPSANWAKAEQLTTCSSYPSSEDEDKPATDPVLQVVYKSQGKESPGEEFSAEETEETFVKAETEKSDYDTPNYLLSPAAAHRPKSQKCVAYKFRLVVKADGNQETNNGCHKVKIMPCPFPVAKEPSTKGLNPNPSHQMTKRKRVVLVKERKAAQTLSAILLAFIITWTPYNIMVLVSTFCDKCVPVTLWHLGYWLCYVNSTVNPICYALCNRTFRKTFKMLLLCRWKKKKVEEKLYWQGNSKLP

[9] = molecular target: T3, Adenosine receptor A1 (Homo sapiens, UniProt P30542)
T3 sequence (P30542 whole entry): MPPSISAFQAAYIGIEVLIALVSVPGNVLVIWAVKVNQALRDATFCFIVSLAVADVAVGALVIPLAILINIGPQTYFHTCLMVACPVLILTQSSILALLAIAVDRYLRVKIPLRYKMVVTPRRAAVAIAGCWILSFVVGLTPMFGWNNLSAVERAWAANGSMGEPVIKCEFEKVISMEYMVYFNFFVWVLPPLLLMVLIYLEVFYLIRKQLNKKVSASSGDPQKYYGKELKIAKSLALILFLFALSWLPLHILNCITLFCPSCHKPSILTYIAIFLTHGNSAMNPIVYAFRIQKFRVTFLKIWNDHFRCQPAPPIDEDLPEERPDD

[10] = molecular target: T4, Thromboxane A2 receptor (Homo sapiens, UniProt P21731); type: functional
T4 sequence (P21731 whole entry): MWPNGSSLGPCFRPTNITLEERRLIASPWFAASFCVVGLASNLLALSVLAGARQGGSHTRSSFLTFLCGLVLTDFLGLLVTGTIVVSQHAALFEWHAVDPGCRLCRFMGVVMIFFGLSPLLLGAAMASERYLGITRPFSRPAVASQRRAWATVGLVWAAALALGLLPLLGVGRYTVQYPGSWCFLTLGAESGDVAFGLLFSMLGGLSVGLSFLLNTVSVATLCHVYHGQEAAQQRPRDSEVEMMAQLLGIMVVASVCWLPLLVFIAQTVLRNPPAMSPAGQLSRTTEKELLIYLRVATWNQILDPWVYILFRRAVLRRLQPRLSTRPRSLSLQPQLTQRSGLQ

[11] = molecular target: Acetylcholinesterase (Homo sapiens, UniProt P22303); type: functional
[12] = molecular target: T4, Thromboxane A2 receptor; type: functional, cell-based
[13] = molecular target: D(1B) dopamine receptor (Homo sapiens, UniProt P21918)
[14] = molecular target: T1, Androgen receptor
Also: assay procedure not described here.

Acetylcholinesterase, sequence (P22303 whole entry): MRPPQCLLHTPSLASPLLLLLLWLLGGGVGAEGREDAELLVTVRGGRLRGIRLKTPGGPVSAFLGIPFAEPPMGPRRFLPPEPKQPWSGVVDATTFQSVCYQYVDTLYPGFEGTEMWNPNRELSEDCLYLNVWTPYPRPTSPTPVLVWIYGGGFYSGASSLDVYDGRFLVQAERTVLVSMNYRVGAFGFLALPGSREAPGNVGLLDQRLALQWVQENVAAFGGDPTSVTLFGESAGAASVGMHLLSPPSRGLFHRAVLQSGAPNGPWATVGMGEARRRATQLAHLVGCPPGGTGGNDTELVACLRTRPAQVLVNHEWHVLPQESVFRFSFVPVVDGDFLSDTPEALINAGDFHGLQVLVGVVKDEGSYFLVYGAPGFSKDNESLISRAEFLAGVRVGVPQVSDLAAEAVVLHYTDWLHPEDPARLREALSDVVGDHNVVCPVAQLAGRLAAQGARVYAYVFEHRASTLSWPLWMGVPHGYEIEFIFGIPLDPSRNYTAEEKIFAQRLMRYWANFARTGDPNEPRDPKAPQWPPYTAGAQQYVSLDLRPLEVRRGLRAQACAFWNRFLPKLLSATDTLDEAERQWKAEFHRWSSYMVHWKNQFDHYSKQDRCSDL
5-hydroxytryptamine receptor 6, sequence (P50406 whole entry): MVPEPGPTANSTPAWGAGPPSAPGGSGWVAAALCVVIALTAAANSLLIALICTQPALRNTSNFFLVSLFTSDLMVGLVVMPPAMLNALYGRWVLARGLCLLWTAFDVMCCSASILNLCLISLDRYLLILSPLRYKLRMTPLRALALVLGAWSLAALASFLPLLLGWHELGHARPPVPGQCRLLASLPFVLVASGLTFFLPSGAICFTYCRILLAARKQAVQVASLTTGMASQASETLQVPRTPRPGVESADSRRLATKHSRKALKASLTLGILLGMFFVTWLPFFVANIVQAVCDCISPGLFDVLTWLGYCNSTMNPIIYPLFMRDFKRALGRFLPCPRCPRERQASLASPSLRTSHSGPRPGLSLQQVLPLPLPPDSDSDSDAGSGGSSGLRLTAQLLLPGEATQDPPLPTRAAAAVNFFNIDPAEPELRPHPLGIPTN
Hydroxycarboxylic acid receptor 2, sequence (Q8TDS4 whole entry): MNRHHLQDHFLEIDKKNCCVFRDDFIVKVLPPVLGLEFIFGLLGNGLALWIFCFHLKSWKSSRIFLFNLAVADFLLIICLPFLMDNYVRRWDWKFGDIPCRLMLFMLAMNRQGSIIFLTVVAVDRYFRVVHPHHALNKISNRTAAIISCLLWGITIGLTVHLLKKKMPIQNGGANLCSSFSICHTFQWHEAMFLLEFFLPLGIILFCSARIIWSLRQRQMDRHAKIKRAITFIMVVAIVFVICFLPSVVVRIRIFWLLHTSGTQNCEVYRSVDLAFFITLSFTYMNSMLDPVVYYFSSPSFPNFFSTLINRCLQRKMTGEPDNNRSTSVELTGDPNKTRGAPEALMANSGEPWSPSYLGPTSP
Sodium channel protein type 5 subunit alpha, sequence (Q14524 whole entry): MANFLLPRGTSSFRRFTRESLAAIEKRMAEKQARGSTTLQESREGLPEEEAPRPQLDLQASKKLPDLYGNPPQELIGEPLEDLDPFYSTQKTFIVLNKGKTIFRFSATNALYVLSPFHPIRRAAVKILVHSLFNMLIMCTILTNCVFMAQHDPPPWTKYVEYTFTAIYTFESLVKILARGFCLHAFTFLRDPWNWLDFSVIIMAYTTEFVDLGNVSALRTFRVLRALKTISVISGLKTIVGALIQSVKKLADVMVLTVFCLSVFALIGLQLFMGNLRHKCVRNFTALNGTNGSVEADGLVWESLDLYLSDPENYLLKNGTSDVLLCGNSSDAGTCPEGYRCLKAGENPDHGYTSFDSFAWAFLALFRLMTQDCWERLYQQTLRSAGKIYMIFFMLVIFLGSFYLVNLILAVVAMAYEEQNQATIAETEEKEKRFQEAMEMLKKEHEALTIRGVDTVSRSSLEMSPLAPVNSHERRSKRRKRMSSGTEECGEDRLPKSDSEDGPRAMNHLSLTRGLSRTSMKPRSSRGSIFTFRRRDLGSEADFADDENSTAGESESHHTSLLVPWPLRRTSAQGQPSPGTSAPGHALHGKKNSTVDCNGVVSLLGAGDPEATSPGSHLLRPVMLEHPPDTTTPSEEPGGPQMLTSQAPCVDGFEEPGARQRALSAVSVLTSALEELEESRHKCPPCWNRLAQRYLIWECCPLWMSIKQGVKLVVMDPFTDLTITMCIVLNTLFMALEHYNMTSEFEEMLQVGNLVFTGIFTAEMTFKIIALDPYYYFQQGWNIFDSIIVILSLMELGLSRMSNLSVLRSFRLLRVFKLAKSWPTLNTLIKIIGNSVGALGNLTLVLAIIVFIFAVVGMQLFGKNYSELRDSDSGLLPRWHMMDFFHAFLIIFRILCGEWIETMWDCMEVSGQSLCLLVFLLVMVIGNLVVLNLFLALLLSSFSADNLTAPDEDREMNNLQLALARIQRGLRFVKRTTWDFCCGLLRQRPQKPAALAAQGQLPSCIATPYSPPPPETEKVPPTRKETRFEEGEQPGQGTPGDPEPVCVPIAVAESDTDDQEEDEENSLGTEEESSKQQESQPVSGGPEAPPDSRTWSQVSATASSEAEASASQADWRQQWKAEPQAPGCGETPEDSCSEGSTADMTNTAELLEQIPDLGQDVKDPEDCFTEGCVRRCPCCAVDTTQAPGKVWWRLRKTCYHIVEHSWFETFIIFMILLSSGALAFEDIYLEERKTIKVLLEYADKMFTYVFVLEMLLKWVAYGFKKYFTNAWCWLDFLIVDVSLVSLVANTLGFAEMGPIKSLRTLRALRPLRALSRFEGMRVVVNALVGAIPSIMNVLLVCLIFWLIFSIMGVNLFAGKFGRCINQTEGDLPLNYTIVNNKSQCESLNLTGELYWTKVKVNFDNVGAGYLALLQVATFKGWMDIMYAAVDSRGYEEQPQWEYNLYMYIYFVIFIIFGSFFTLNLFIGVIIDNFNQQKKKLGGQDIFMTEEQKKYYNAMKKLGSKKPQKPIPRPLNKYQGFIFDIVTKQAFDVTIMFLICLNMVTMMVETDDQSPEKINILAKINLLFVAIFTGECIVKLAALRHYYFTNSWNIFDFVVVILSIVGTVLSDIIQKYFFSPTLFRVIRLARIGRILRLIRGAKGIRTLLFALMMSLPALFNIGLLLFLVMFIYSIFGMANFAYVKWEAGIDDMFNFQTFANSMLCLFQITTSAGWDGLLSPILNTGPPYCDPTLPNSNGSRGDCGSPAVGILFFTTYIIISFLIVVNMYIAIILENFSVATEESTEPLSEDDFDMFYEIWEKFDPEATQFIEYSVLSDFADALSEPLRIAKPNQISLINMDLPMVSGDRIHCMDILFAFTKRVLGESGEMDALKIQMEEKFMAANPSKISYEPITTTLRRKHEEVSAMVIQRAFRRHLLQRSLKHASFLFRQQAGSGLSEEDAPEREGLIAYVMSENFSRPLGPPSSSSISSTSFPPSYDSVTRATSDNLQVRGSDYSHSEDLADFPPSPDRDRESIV
5-hydroxytryptamine receptor 7, sequence (P34969 whole entry): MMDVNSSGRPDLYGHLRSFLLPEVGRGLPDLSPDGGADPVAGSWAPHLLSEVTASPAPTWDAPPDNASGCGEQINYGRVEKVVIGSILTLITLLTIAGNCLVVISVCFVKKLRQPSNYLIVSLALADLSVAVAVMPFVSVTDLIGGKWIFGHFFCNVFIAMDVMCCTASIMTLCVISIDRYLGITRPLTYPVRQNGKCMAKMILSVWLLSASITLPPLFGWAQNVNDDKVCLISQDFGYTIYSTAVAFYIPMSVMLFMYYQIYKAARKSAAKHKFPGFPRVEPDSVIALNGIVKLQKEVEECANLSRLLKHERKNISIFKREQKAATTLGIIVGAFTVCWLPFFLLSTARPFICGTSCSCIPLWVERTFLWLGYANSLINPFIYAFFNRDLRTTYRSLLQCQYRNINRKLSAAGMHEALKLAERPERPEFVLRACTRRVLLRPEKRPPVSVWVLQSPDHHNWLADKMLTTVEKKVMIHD
Cannabinoid receptor 1, sequence (P21554 whole entry): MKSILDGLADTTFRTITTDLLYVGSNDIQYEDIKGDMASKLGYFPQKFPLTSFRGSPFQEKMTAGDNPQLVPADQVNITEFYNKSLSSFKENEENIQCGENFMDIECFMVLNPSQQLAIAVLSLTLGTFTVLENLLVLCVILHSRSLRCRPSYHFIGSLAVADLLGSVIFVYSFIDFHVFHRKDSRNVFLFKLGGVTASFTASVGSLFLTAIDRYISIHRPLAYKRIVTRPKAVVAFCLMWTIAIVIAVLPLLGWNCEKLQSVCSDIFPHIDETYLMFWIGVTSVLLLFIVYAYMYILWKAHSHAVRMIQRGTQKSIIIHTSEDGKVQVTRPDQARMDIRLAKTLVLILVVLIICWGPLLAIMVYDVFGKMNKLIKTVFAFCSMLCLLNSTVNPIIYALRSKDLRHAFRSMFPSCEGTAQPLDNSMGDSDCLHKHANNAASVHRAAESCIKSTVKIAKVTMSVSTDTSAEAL
D(1B) dopamine receptor, sequence (P21918 whole entry): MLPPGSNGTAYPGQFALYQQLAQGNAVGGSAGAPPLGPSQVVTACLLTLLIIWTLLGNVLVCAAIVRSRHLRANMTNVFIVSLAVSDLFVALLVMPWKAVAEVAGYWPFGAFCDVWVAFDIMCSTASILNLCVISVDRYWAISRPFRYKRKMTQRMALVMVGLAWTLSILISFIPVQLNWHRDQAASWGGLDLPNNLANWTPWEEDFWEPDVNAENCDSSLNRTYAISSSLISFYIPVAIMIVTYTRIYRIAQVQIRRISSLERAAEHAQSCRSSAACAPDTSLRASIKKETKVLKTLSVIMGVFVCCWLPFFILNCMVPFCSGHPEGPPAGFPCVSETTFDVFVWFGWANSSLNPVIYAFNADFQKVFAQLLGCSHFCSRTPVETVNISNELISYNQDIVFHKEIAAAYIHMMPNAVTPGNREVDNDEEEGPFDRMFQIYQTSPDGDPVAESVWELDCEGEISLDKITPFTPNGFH

- AC50 [2]: > 10 µM
Structure (SMILES): CCOC(=O)[C@H](CCc1ccccc1)N[C@@H](C)C(=O)N1[C@H](C(=O)O)C[C@@H]2CCC[C@@H]21
- AC50 [1]: > 30 µM

Structure (SMILES): CC(=O)Nc1ccc(O)cc1 [ACETAMINOPHEN]
- AC50 [3]: > 30 µM

Structure (SMILES): C=CCc1ccccc1OCC(O)CNC(C)C (centres undefined) [ALPRENOLOL]
- AC50 [3]: > 30 µM

Structure (SMILES): CC[C@H]1OC(=O)[C@H](C)[C@@H](O[C@H]2C[C@@](C)(OC)[C@@H](O)[C@H](C)O2)[C@H](C)[C@@H](O[C@@H]2O[C@H](C)C[C@H](N(C)C)[C@H]2O)[C@](C)(O)C[C@@H](C)CN(C)[C@H](C)[C@@H](O)[C@]1(C)O [AZITHROMYCIN]
- AC50 [1]: > 30 µM
- AC50 [4]: > 10 µM
- AC50 [5]: > 10 µM
- AC50 [6]: > 10 µM
- AC50 [7]: > 10 µM
- AC50 [8]: > 10 µM
- AC50 [9]: > 30 µM

Structure (SMILES): CCc1oc2ccccc2c1C(=O)c1cc(I)c(O)c(I)c1 [BENZIODARONE]
- AC50 [9]: 18.2 µM

Structure (SMILES): CC(C)C[C@H]1C(=O)N2CCC[C@H]2[C@]2(O)O[C@](NC(=O)[C@@H]3C=C4c5cccc6[nH]c(Br)c(c56)C[C@H]4N(C)C3)(C(C)C)C(=O)N12 [BROMOCRIPTINE]
- AC50 [10]: > 30 µM
- AC50 [11]: > 30 µM
- AC50 [12]: > 30 µM

- AC50 [2]: > 10 µM
Structure (SMILES): CC1=C(C(=O)O)N2C(=O)[C@@H](NC(=O)[C@H](N)c3ccccc3)[C@H]2SC1 [CEPHALEXIN ANHYDROUS]

- AC50 [4]: > 10 µM
- AC50 [5]: > 10 µM
- AC50 [7]: > 10 µM
- AC50 [8]: 6.12 µM
- AC50 [13]: > 10 µM
Structure (SMILES): CN(C)CCC(c1ccc(Cl)cc1)c1ccccn1 (centres undefined) [CHLORPHENIRAMINE]
- AC50 [1]: > 30 µM

Structure (SMILES): O=C(Cc1ccc(-c2ccccc2)cc1)Nc1ccccn1 [DIFENPIRAMIDE]
- AC50 [9]: > 30 µM

Structure (SMILES): Cc1cc(C#N)cc(C)c1Oc1nc(Nc2ccc(C#N)cc2)nc(N)c1Br [ETRAVIRINE]
- AC50 [9]: 22.5 µM

Structure (SMILES): O=C(OCC(O)CO)c1ccccc1Nc1ccnc2cc(Cl)ccc12 (centres undefined) [GLAFENINE]
- AC50 [3]: > 30 µM
- AC50 [10]: > 30 µM
- AC50 [11]: > 30 µM
- AC50 [12]: 9.8 µM

Structure (SMILES): CCC1=C(C)CN(C(=O)NCCc2ccc(S(=O)(=O)NC(=O)N[C@H]3CC[C@H](C)CC3)cc2)C1=O [GLIMEPIRIDE]
- AC50 [9]: > 30 µM

- AC50 [14]: > 30 µM
- AC50 [2]: > 10 µM
Structure (SMILES): C[C@]12CCC(=O)C=C1CC[C@@H]1[C@@H]2[C@@H](O)C[C@@]2(C)[C@H]1CC[C@]2(O)C(=O)CO [HYDROCORTISONE]

- AC50 [4]: > 10 µM
- AC50 [5]: > 10 µM
- AC50 [6]: > 10 µM
- AC50 [7]: > 10 µM
- AC50 [8]: > 10 µM
Structure (SMILES): CCC(C)n1ncn(-c2ccc(N3CCN(c4ccc(OCC5COC(Cn6cncn6)(c6ccc(Cl)cc6Cl)O5)cc4)CC3)cc2)c1=O (centres undefined) [ITRACONAZOLE]

Structure (SMILES): c1ccc([C@H]2CN3CCSC3=N2)cc1 [LEVAMISOLE]
- AC50 [1]: > 50 µM
- AC50 [10]: > 30 µM
- AC50 [11]: > 30 µM
- AC50 [12]: > 30 µM

- AC50 [14]: > 30 µM
Structure (SMILES): CN1C(C(=O)Nc2ccccn2)=C(O)c2sc(Cl)cc2S1(=O)=O [LORNOXICAM]

Structure (SMILES): C[C@@H](O)[C@H]1C(=O)N2C(C(=O)O)=C(S[C@@H]3CN[C@H](C(=O)N(C)C)C3)[C@H](C)[C@H]12 [MEROPENEM]
- AC50 [10]: > 300 µM
- AC50 [11]: > 300 µM
- AC50 [12]: > 300 µM

— ChEMBL document CHEMBL5291721, “A preclinical secondary pharmacology resource illuminates target-adverse drug reaction associations of marketed drugs” (Nat Commun, 2023)
